Here are results for 22 molecules from patent US20150329558A1, “FUSED HETEROCYCLIC COMPOUNDS AS ION CHANNEL MODULATORS” (Gilead Sciences, Inc., priority 2011, published 2015).

Series [1] concerns the target wild-type human cardiac sodium channel, hNav1.5 (late INa) (Homo sapiens, UniProt Q14524). The series is described as follows: Late INa screening assay (QPatch whole cell patch clamp). The format is cell-based. As to conditions: percent block of late INa, compound at 1 μM, 10 μM Tefluthrin, HEK293 hNav1.5; read-out: Late INa 1 μM. Here is the method: The late sodium current (Late INa) and peak sodium current (Peak INa) assays are performed on an automated electrophysiology platform, QPatch 16× (Sophion Bioscience, Copenhagen, Denmark), which uses the whole cell patch clamp technique to measure currents through the cell membrane of up to 16 cells at a time. The assay uses an HEK293 (human embryonic kidney) cell line heterologously expressing the wild-type human cardiac sodium channel, hNav1.5, purchased from Millipore (Billerica, Mass.). No beta subunits were coexpressed with the Na channel alpha subunit. Cells are maintained with standard tissue culture procedures and stable channel expression is maintained with 400 μg/mL Geneticin in the culture medium. […] Experiments are carried out at 23-25° C. For both the Late INa and Peak INa assays, series resistance compensation is set to 100% and series resistance and whole-cell compensation are performed automatically. Currents are digitized at 25 kHz and low-pass filtered at 12 kHz and 10 kHz for the late and peak INa assays, respectively. Currents through open sodium channels are automatically recorded and stored in the Sophion Bioscience Oracle database (Sophion Bioscience, Copehagen, Denmark). Analysis is performed using QPatch Assay and database software and data are compiled in Excel. Compound stocks are routinely made by the Gilead Sample Bank in plastic vials to 10 mM in dimethyl sulfoxide (DMSO). In some cases, when compounds are not soluble in DMSO, they are made in 100% ethanol. Stocks are sonicated as necessary. […] The intracellular solution used to perfuse the inside of the cells for both the Late INa and Peak INa assays contains: 120 mM CsF, 20 mM CsCl, 5 mM EGTA, 5 mM HEPES and pH adjusted to 7.4 with CsOH. Compounds are diluted in extracellular solution to 1 μM in glass vials and then transferred to glass well plates before robotic addition to the cells. […] For the Late INa assay, sodium channels are activated every 10 seconds (0.1 Hz) by depolarizing the cell membrane to −20 mV for 250 milliseconds (ms) from a holding potential of −120 mV. In response to a −20 mV voltage step, typical hNav1.5 sodium currents activate rapidly to a peak negative current and then inactivate nearly completely within 3-4 ms. All compounds were tested to determine their activity in blocking the late sodium current. Late INa was generated by adding 10 μM Tefluthrin (pyrethroid) to the extracellular solution while recording Na currents. To confirm the block of late INa observed using the automated screening method, a second late INa enhancer (ATX-II) and the manual patch clamp method were used. ATX-II and tefluthrin occupy distinct, non-overlapping binding sites and modify Na^+ channel function differently to increase late INa. […] For the purposes of the screening, late INa is defined as the mean current between 225 ms and 250 ms after stepping to −20 mV to activate Na channels. […] Results are reported as percent block of late INa.

Series [2] in a line: Microsomal stability assay, rat. The format is in vitro ADME. The note with it: metabolic stability, rat liver microsomes 0.5 mg/mL, substrate 3 uM. Here is the method:
(§1) The micorsomal stability assay is generally performed as follows. Format: 15 compounds (and 1 control verapamil) in 3 different species in duplicate sets Substrate: 3 uM Protein concentration: 0.5 mg/mL (for dog, rat, and human liver microsomes) Cofactor: 1×NADPH-Regenerating system Time-points: 2, 12, 25, 45, and 65 minutes [table] Sample preparation: 25 uL at each timepoint is added to plate with 225 uL quenching solution (50% MeOH, 25% ACN, 25% H2O, and 50 nM […]). After plates are vortexed, centrifuge for 30 minutes. Microsomal solutions: take 400 uL of 20 mg/mL microsomes and add to 13,680 uL 100 mM KPO4 buffer. Using an 8-channel, add 650 uL of this solution to the designated two columns on a short plate. The order should be dog microsomes in columns 1 and 2, rat microsomes in columns 3 and 4, and human microsomes in columns 5 and 6. Keep on ice before use. Place this plate in incubator 1 on the TECAN countertop.
(In general: Microsomes from liver hold many membrane-bound enzymes, among them those of drug oxidation.)

The nature of series [3]: Microsomal stability assay, dog. As to conditions: metabolic stability, dog liver microsomes 0.5 mg/mL, substrate 3 uM. Format: in vitro ADME. How it is done:
as §1

The nature of series [4]: Microsomal stability assay, human. The format is in vitro ADME. The note with it: metabolic stability, human liver microsomes 0.5 mg/mL, substrate 3 uM. Here is the method: as §1

Chain of wild-type human cardiac sodium channel, hNav1.5 (late INa) (Q14524 whole entry): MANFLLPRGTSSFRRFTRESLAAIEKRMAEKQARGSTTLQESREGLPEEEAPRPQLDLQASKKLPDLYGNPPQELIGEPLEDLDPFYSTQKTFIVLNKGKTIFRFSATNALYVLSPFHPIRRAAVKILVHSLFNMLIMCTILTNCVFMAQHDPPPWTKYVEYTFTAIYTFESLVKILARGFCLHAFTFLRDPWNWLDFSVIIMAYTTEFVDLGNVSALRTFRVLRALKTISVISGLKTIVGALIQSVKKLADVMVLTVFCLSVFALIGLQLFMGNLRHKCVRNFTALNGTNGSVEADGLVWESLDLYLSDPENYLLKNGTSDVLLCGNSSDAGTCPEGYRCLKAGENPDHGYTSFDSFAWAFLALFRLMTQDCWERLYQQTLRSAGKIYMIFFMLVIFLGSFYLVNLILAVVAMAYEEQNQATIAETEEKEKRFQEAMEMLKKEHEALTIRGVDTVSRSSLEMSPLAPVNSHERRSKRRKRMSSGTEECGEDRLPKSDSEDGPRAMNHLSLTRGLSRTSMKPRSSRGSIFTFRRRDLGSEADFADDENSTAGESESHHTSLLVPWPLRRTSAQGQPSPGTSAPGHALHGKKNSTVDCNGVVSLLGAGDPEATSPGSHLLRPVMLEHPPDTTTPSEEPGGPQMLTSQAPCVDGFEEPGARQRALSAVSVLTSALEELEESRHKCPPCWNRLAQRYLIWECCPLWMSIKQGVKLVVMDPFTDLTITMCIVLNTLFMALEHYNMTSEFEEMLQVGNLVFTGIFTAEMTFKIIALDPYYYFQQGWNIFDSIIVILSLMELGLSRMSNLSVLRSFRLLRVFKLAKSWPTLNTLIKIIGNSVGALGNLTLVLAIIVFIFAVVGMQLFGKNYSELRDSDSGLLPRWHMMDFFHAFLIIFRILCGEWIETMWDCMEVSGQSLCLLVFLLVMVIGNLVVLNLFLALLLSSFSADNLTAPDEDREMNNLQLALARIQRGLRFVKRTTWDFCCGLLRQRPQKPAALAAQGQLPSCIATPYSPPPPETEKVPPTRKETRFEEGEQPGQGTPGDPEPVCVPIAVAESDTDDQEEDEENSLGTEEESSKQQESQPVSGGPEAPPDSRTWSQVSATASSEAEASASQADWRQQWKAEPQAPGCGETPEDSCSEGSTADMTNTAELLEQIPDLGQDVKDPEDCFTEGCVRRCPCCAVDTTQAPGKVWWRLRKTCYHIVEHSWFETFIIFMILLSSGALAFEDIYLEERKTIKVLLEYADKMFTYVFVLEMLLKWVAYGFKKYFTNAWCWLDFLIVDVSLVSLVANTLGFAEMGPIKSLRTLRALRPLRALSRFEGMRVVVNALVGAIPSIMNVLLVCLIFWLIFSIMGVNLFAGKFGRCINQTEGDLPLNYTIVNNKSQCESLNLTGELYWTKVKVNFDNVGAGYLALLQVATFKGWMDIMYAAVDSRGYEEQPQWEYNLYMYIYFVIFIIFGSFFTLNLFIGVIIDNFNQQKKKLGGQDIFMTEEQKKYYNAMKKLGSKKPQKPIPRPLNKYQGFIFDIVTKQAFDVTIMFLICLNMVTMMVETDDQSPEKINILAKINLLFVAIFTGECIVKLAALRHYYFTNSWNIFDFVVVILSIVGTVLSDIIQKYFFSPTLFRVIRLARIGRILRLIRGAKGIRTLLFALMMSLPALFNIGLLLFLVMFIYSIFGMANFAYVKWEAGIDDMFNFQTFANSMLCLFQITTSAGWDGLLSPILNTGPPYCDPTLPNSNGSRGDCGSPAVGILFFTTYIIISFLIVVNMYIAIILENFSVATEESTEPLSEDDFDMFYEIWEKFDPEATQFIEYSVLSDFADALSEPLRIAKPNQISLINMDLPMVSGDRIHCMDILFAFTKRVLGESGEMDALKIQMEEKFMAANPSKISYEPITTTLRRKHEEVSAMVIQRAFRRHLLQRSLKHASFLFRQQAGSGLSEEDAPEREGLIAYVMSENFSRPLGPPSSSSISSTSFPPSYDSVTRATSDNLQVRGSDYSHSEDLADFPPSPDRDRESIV

For the molecule `O=c1c2cc(-c3cnc(N4CCCCC4)nc3)ccc2nnn1CCOc1ncccn1` [Compound V-12, 6-(2-(piperidin-1-yl)pyrimidin-5-yl)-3-(2-(pyrimidin-2-yloxy)ethyl)benzo[d][1,2,3]triazin-4(3H)-one], in series [1], the inhibition at 1 µM was 26%. Also, the MS Rat THalf in series [2] was found to be 11 min. In addition, the MS Dog THalf in series [3] came to 5 min. Besides, the MS Human THalf in series [4] is 9 min.

For the molecule `Cc1nc(Cn2nnc3ccc(-c4ccc(OC(F)(F)F)cc4)cc3c2=O)no1` [II-6, 3-((5-methyl-1,2,4-oxadiazol-3-yl)methyl)-6-(4-(trifluoromethoxy)phenyl)benzo[d][1,2,3]triazin-4(3H)-one], the inhibition at 1 µM in series [1] was determined as 43%. The same molecule had an MS Rat THalf in series [2] of 144 min. Moreover, in series [3], the MS Dog THalf came out at 123 min. Moreover, in series [4], the MS Human THalf was found to be 164 min.

For the molecule `Cc1noc(Cn2nnc3ccc(-c4ccc(Oc5ccccc5)cc4)cc3c2=O)n1` [II-7, 3-((3-methyl-1,2,4-oxadiazol-5-yl)methyl)-6-(4-phenoxyphenyl)benzo[d][1,2,3]triazin-4(3H)-one], the inhibition at 1 µM in series [1] turned out to be 75%. The molecule also showed an MS Rat THalf in series [2] of 10 min. The MS Dog THalf in series [3] was 4 min. Moreover, the MS Human THalf in series [4] amounted to 10 min.

Consider `O=c1c2cc(-c3ccc(OC(F)(F)F)cc3)ccc2nnn1CCn1cccn1` [II-13, 3-(2-(1H-pyrazol-1-yl)ethyl)-6-(4-(trifluoromethoxy)phenyl)benzo[d][1,2,3]triazin-4(3H)-one], for which the inhibition at 1 µM in series [1] is 67%. This molecule also showed an MS Rat THalf in series [2] of 25 min. The MS Dog THalf in series [3] was 36 min. Besides, the MS Human THalf in series [4] is 149 min.

In the case of `O=c1c2cc(-c3ccc(OC(F)(F)F)cc3)ccc2nnn1CCc1ccccn1` [II-15, 3-(2-(pyridin-2-yl)ethyl)-6-(4-(trifluoromethoxy)phenyl)benzo[d][1,2,3]triazin-4(3H)-one], the inhibition at 1 µM in series [1] is 71%. Further, the MS Rat THalf in series [2] was determined as 19 min. In series [3], this molecule gave an MS Dog THalf of 23 min. Further, the MS Human THalf in series [4] came to 33 min.

With `Cc1noc(Cn2nnc3ccc(-c4ccc(Oc5ccc(Cl)cc5)cc4)cc3c2=O)n1` [II-16, 6-(4-(4-chlorophenoxyl)phenyl)-3-((3-methyl-1,2,4-oxadiazol-5-yl)methyl)benzo[d][1,2,3]triazin-4(3H)-one], the inhibition at 1 µM in series [1] came to 76%. In series [2], the MS Rat THalf was determined as 102 min. Besides, the MS Dog THalf in series [3] was determined as 31 min. The molecule further gave an MS Human THalf in series [4] of 74 min.

The molecule `COc1ncc(-c2cnn(CCn3ncc4ccc(-c5ccc(OC(F)(F)F)cc5)cc4c3=O)c2)cn1` [III-34, 2-(2-(4-(2-methoxypyrimidin-5-yl)-1H-pyrazol-1-yl)ethyl)-7-(4-(trifluoromethoxy)phenyl)phthalazin-1 (2H)-one] gave an MS Rat THalf in series [2] of 41 min. In series [3], this molecule returned an MS Dog THalf of 46 min. Moreover, the MS Human THalf in series [4] is 50 min.

`CC1CN(C(=O)N2CCc3ccc(-c4ccc(C(F)(F)F)cc4)cc3C2)C1` [IX-107, (3-methylazetidin-1-yl)(7-(4-(trifluoromethyl)phenyl)-3,4-dihydroisoquinolin-2(1H)-yl)methanone]: the inhibition at 1 µM in series [1] is 24%.

As for `Nc1n[nH]c(C(=O)N2CCc3ccc(-c4ccc(C(F)(F)F)cc4)cc3C2)n1` [IX-111, (3-amino-1H-1,2,4-triazol-5-yl)(7-(4-(trifluoromethyl)phenyl)-3,4-dihydroisoquinolin-2(1H)-yl)methanone], in series [1], the inhibition at 1 µM worked out at 27%.

Turning to `CC1(O)CN(C(=O)N2CCc3ccc(-c4ccc(C(F)(F)F)cc4)cc3C2)C1` [IX-112, (3-hydroxy-3-methylazetidin-1-yl)(7-(4-(trifluoromethyl)phenyl)-3,4-dihydroisoquinolin-2(1H)-yl)methanone], the inhibition at 1 µM in series [1] came to 18%.

Consider `O=C(N1CCc2ccc(-c3ccc(C(F)(F)F)cc3)cc2C1)N1CC(CO)C1` [IX-113, (3-(hydroxymethyl)azetidin-1-yl)(7-(4-(trifluoromethyl)phenyl)-3,4-dihydroisoquinolin-2(1H)-yl)methanone], for which the inhibition at 1 µM in series [1] is 17%.

On to `CC(C)(C)OC(=O)N1CCC[C@@H]1C(=O)N1CCc2ccc(-c3ccc(C(F)(F)F)cc3)cc2C1` [IX-114, (R)-tert-butyl 2-(7-(4-(trifluoromethyl)phenyl)-1,2,3,4-tetrahydroisoquinoline-2-carbonyl)pyrrolidine-1-carboxylate], for which the inhibition at 1 µM in series [1] is 20%.

On to `O=C(c1cnnn1-c1ccccc1)N1CCc2ccc(-c3ccc(C(F)(F)F)cc3)cc2C1` [IX-116, (1-phenyl-1H-1,2,3-triazol-5-yl)(7-(4-(trifluoromethyl)phenyl)-3,4-dihydroisoquinolin-2(1H)-yl)methanone], for which, in series [1], the inhibition at 1 µM was 29%.

On to `CCOC(=O)Cn1cc(C(=O)N2CCc3ccc(-c4ccc(C(F)(F)F)cc4)cc3C2)nn1` [IX-119, ethyl 2-(4-(7-(4-(trifluoromethyl)phenyl)-1,2,3,4-tetrahydroisoquinoline-2-carbonyl)-1H-1,2,3-triazol-1-yl)acetate], for which the inhibition at 1 µM in series [1] was 15%.

On to `O=C(N1CCCC1)N1CCc2ccc(-c3ccc(OC(F)(F)F)cc3)cc2C1` [IX-122, pyrrolidin-1-yl(7-(4-(trifluoromethoxy)phenyl)-3,4-dihydroisoquinolin-2(1H)-yl)methanone], for which the inhibition at 1 µM in series [1] worked out at 36%.

For `O=C(NCc1ncccn1)N1CCc2ccc(-c3ccc(OC(F)(F)F)cc3)cc2C1` [IX-123, N-(pyrimidin-2-ylmethyl)-7-(4-(trifluoromethoxy)phenyl)-3,4-dihydroisoquinoline-2(1H)-carboxamide], the inhibition at 1 µM in series [1] worked out at 17%.

As to `CC1(C)Oc2ccc(-c3ccc(OC(F)(F)F)cc3)cc2C(=O)N1Cc1ccccn1` [VIII-13, 2,2-dimethyl-3-(pyridin-2-ylmethyl)-6-(4-(trifluoromethoxy)phenyl)-2H-benzo[e][1,3]oxazin-4(3H)-one], the inhibition at 1 µM in series [1] was 20%.

For `O=C1c2cc(-c3ccc(C(F)(F)F)cc3F)ccc2OCN1Cc1ncccn1` [VIII-18, 6-(2-fluoro-4-(trifluoromethyl)phenyl)-3-(pyrimidin-2-ylmethyl)-2H-benzo[e][1,3]oxazin-4(3H)-one], in series [1], the inhibition at 1 µM is 54%.

In the case of `O=C1c2cc(-c3ccc(C(F)(F)F)cc3)ccc2OCN1Cc1ncccn1` [VIII-19, 3-(pyrimidin-2-ylmethyl)-6-(4-(trifluoromethyl)phenyl)-2H-benzo[e][1,3]oxazin-4(3H)-one], in series [1], the inhibition at 1 µM amounted to 61%.

Turning to `O=C1c2cc(-c3ccc(C(F)(F)F)cc3)ccc2OCN1Cc1ccccc1` [VIII-21, 3-benzyl-6-(4-(trifluoromethyl)phenyl)-2H-benzo[e][1,3]oxazin-4(3H)-one], the inhibition at 1 µM in series [1] is 58%.

As for `O=C1c2cc(-c3ccc(C(F)(F)F)cc3F)ccc2OCN1Cc1ccccc1` [VIII-22, 3-benzyl-6-(2-fluoro-4-(trifluoromethyl)phenyl)-2H-benzo[e][1,3]oxazin-4(3H)-one], the inhibition at 1 µM in series [1] is 45%.

For `O=C1c2cc(-c3ccc(OC(F)(F)F)cc3)ccc2OCN1Cc1ccccc1` [VIII-23, 3-benzyl-6-(4-(trifluoromethoxy)phenyl)-2H-benzo[e][1,3]oxazin-4(3H)-one], the inhibition at 1 µM in series [1] came out at 48%.
